According to patent EP3892265A1, “COMPOSITION FOR SUPPRESSING BLOOD PRESSURE ELEVATION AND METHOD FOR SUPPRESSING BLOOD PRESSURE ELEVATION” (Suntory Holdings Limited, priority 2018, dated 2020):

How the values were obtained:
[1] = system: human umbilical vein endothelial cells (HUVECs, Lonza); assay: Promotion of nitric oxide (NO) production from vascular endothelial cells, DAF-2 fluorescence; format: cell-based; conditions: 24 hours, relative to control group; for Relative amount of NO released (%) Average: n = 5
Description: The effect of xanthohumol (produced by Gifu Shellac Manufacturing Co., Ltd.) in promoting nitric oxide (NO) production from vascular endothelial cells was evaluated by the following procedure.
Specifically, human umbilical vein endothelial cells (HUVECs, Lonza) were treated with xanthohumol for 24 hours, and the amount of nitric oxide (NO) production was measured (n = 5).
HUVECs in a medium (EGM-2, Lonza) were seeded onto a 96-well plate at 10000 cells/0.1 mL/well, and cultured in a CO2 incubator. On the following day, the medium of a xanthohumol-added group was replaced by a medium to which xanthohumol was added; the control group was transferred to a control medium; and the positive control group was transferred to a medium containing positive control (Lovastatin, 10 µM) . Then, these groups were cultured in a CO2 incubator for additional 24 hours.
The medium to which xanthohumol was added was prepared by dissolving xanthohumol in dimethyl sulfoxide (DMSO) and adding the solution to a medium such that the final concentration of xanthohumol was 1 µg/mL, 3 µg/mL, or 10 µg/mL. The control medium was prepared by adding DMSO to a medium to the same concentration as that in the xanthohumol-added group. The medium containing positive control was prepared by adding a solution of lovastatin in DMSO to a medium such that the final concentration of lovastatin (produced by FUJIFILM Wako Pure Chemical Corporation) was 10 µM.
After culturing for 24 hours, diaminofluorescein-2 diacetate (DAF-2, Goryo Chemical, Inc.) was added to each medium to a final concentration of 10 µM, followed by incubation in a CO2 incubator for two hours. Subsequently, the culture supernatant was transferred to a 96-well plate (black plate), and the fluorescence intensity (ex. 495 nm, em. 515 nm) was measured. The fluorescence intensity relative to the fluorescence intensity of the control group was determined as the relative amount of NO released. Significant difference was tested between the groups (control group vs. xanthohumol-added group) by Student's t-test (significant level: p < 0.05). […]

[2] = molecular target: T1, angiotensin-converting enzyme (ACE) (Homo sapiens, UniProt P12821); assay: ACE inhibitory activity measured with ACE Kit-WST (Dojindo Laboratories); format: biochemical; conditions: n = 4
T1 construct: purchased Dojindo Laboratories
Description: The angiotensin-converting enzyme (ACE) inhibitory effect of xanthohumol was evaluated by the following procedure.
Specifically, the ACE inhibitory activity was measured for the case where xanthohumol (produced by Gifu Shellac Manufacturing Co., Ltd.) was added as a test substance (n = 4 per level), using an ACE Kit-WST (Dojindo Laboratories) according to the instructions accompanying the kit.
A level with addition of distilled water instead of xanthohumol was set as a control group.
A level with no addition of xanthohumol which was measured in an ACE (enzyme)-free reaction system was set as an enzyme-free group.
The ACE inhibitory activity (%) of the test substance was calculated using the following formula 1. Significant difference was tested between the groups (control group vs. test substance-added group) by Student's t-test (significant level: p < 0.05). ACE inhibitory activity(%); = 100 × ((absorbanceat450nmofcontrolgroup)−; (absorbance at 450 nm in test substance−added; group))/((absorbanceat450nmofcontrolgroup)−; (absorbanceat450nmofenzyme-freegroup)) [formula]

[3] = Xanthohumol concentration 3 µg/mL
[4] = Xanthohumol concentration 10 µg/mL

T1 sequence (P12821 30-1306, species assumed): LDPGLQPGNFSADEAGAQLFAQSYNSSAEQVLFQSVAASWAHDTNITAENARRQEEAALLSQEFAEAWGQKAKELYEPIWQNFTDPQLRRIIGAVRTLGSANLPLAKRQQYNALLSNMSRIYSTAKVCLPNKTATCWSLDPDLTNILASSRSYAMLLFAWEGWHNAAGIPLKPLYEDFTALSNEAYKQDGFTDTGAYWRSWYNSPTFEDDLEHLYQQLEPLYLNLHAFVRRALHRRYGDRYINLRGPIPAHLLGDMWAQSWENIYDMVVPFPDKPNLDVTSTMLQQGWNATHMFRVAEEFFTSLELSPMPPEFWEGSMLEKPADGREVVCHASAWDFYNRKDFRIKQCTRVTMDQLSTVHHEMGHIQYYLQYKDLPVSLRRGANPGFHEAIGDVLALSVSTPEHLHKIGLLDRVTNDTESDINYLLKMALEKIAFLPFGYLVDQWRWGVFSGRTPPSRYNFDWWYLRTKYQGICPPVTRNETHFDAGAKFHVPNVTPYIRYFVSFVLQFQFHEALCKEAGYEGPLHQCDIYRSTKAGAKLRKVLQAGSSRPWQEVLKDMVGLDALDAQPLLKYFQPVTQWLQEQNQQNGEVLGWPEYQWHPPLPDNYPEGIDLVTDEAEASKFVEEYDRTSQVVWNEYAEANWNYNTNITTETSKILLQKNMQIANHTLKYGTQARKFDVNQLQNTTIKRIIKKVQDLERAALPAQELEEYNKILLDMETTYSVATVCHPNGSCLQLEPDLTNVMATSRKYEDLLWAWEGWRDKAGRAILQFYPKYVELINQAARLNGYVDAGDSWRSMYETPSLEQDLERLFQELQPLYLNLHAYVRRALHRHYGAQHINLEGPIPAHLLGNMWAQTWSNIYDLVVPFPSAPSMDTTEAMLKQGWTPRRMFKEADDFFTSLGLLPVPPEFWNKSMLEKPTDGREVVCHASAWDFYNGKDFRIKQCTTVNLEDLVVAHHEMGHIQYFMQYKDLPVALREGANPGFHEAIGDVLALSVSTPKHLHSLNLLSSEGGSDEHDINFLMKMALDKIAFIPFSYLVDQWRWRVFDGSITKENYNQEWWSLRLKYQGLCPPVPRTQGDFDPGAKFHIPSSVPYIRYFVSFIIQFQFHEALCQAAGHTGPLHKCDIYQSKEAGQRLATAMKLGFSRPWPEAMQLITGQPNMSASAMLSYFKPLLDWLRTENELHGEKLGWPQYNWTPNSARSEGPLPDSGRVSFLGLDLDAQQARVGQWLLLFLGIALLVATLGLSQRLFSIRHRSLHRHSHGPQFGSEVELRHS

Row | SMILES | Relative amount of NO released (%) Average ([1]; Xanthohumol concentration 1 µg/mL) [%] | Relative amount of NO released (%) Average [1, 3] [%] | Relative amount of NO released (%) Average [1, 4] [%] | inhibition at 3 µg/mL [2, 3] [%] | inhibition at 10 µg/mL [2, 4] [%] | inhibition at 30 µg/mL ([2]; Xanthohumol concentration 30 µg/mL) [%] | relative amount of NO released ([1]; Lovastatin 10 µM, average ± standard error) [%]
1 | COc1cc(O)c(CC=C(C)C)c(O)c1C(=O)/C=C/c1ccc(O)cc1 [Xanthohumol] | 108.3 | 124.8 | 147.5 | 3.33 | 15.8 | 19.5 | 
2 | CC[C@H](C)C(=O)O[C@H]1C[C@@H](C)C=C2C=C[C@H](C)[C@H](CC[C@@H]3C[C@@H](O)CC(=O)O3)[C@H]21 [positive control, Lovastatin, reference compound] |  |  |  |  |  |  | 122.8 ± 2.7
